Test [1] deals with T1, human B1R receptor (hB1R) (Homo sapiens, UniProt P46663).
T1 construct: host or cells: CHO K1 cells
T1 sequence (P46663 1-353): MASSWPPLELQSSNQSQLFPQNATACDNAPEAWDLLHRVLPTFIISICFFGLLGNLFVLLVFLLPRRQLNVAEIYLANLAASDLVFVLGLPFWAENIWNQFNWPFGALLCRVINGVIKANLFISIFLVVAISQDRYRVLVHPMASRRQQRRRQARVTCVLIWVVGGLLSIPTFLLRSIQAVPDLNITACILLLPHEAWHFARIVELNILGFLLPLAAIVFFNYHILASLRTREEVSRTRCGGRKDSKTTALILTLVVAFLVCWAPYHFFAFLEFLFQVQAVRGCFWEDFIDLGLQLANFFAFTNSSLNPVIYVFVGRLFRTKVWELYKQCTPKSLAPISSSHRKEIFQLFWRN
Kind of test: FLIPR Ca2+ assay on human bradykinin 1 receptor (CHO K1 hB1R cells). It is filed as cell-based. The note with it: test substance 10 μM; CHO K1 cells with human B1R gene; agonist Lys-Des-Arg9-bradykinin 0.5 nM; compared to maximum achievable inhibition. The method, then: (§1) The agonistic or antagonistic action of compounds can be quantified on the bradykinin 1 receptor (B1R) of humans and rats with ectopically expressing cell lines (CHO K1 cells) and with the aid of a Ca^2+-sensitive dye (Fluo-4) in the fluorescent imaging plate reader (FLIPR). The figure in percent activation refers to the Ca^2+ signal after addition of Lys-Des-Arg^9-bradykinin (0.5 nM) and Des-Arg^9-bradykinin (100 nM). Antagonists result in a suppression of the Ca^2+ inflow after the addition of the agonist. Percent inhibition values are given in comparison to the maximum achievable inhibition.
(§2) The agonistic or antagonistic action of substances can be determined on the bradykinin 1 receptor (B1R) of humans and rats by means of the following assay.
(§3) According to this assay the Ca^2+ inflow through the channel is quantified by means of a Ca^2+-sensitive dye (Fluo-4 type, Molecular Probes Europe BV, Leiden, Netherlands), in a Fluorescent Imaging Plate Reader (FLIPR, Molecular Devices, Sunnyvale, USA). Method:
(§4) Chinese hamster ovary cells (CHO K1 cells) are used, which are stably transfected with the human B1R gene (hB1R cells, Euroscreen s.a., Gosselies, Belgium), or with the B1R gene of rats (rB1R cells, Axxam, Milan, Italy). For functional investigations these cells are plated out on black 96-well plates with a clear floor (BD Biosciences, Heidelberg, Germany) in a density of 20,000/25,000 cells/well. The cells are incubated overnight with 10 vol. % FBS (foetal bovine serum, Gibco Invitrogen GmbH, Karlsruhe, Germany) at 37° C. and 5% CO2 in a culture medium (hB1R cells: Nutrient Mixture Ham's F12, Gibco Invitrogen GmbH, Karlsruhe, Germany; rB1R cells: D-MEM/F12, Gibco Invitrogen GmbH, Karlsruhe, Germany). The following day the cells are charged for 60 minutes at 37° C. with 2.13 μM Fluo-4 (Molecular Probes Europe BV, Leiden, Netherlands) in HBSS buffer (Hank's buffered saline solution, Gibco Invitrogen GmbH, Karlsruhe, Germany) together with […] (Sigma-Aldrich, Taufkirchen, Germany) and 10 mM HEPES (Sigma-Aldrich, Taufkirchen, Germany).
(§5) The plates are then washed twice with HBSS buffer and HBSS buffer is added which additionally contains 0.1% BSA (bovine serum albumin; Sigma-Aldrich, Taufkirchen, Germany), 5.6 mM glucose and 0.05% gelatin (Merck KGaA, Darmstadt, Germany). After further incubation for 20 minutes at room temperature the plates are used for the Ca^2+ measurement in the FLIPR. The Ca^2+-dependent fluorescence is measured both before and after the addition of substances (λex=488 nm, λem=540 nm). The quantification is carried out by measuring the highest fluorescence intensity (FC, fluorescence counts) over time.
(§6) The FLIPR protocol consists of two substance additions. First of all test substances (10 μM) are pipetted onto the cells and the Ca^2+ inflow is compared with the control (hB1R: Lys-Des-Arg9-bradykinin 0.5 nM; rB1R: Des-Arg9-bradykinin 100 nM). This gives the result in percent activation referred to the Ca^2+ signal after addition of Lys-Des-Arg9-bradykinin (0.5 nM), bzw. Des-Arg9-bradykinin (100 nM). After 10 minutes' incubation 0.5 nM Lys-Des-Arg9-bradykinin (hB1R) and 100 nM Des-Arg^9-bradykinin (rB1R) are applied and the inflow of Ca^2+ is likewise determined. Antagonists lead to a suppression of the Ca^2+ inflow. The percent inhibition compared to the maximum achievable inhibition is calculated. The compounds show a good activity on both human and rat receptors.
(§7) The agonistic and antagonistic action of the compounds according to the invention on the bradykinin 1 receptor (B1R) of humans and rats were determined as described above. Antagonists lead to a suppression of the Ca^2+ inflow. The % inhibition compared to the maximum achievable inhibition was calculated.

Test [2] has as its target T2, B1R receptor of rats (rB1R) (Rattus norvegicus, UniProt P97583).
T2 construct: host or cells: CHO K1 cells
T2 sequence (P97583 1-337): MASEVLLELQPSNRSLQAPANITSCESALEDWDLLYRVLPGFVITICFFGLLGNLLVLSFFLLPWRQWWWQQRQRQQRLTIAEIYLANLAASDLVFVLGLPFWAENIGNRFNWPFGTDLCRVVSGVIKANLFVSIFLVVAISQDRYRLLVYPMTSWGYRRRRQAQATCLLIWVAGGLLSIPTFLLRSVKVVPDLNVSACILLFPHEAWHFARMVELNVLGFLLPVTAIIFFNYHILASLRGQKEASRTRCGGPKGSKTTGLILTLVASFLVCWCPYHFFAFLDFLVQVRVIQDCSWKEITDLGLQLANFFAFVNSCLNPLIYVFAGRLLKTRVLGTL
As to the kind of experiment: FLIPR Ca2+ assay on rat bradykinin 1 receptor (CHO K1 rB1R cells). The test is classed as cell-based. Particulars: test substance 10 μM; CHO K1 cells with B1R gene of rats; agonist Des-Arg9-bradykinin 100 nM; compared to maximum achievable inhibition. The method, then:
as §1, §2, §3, §4, §5, §6, §7

In general, inhibition refers to the drop in the measured response relative to a control, in per cent.

For `COc1c(C)cc(S(=O)(=O)N(C)CCOCC(=O)N2CCn3cccc3C2c2ccc(C(F)(F)F)cc2F)c(C)c1C` (stereo not shown) [Example 39, N-(2-(2-(1-(2-fluoro-4-(trifluoromethyl)phenyl)-3,4-dihydropyrrolo[1,2-a]pyrazin-2(1H)-yl)-2-oxoethoxy)ethyl)-4-methoxy-N,2,3,5-tetramethyl-benzenesulfonamide], the inhibition at 10 µM was found to be 35% in test [1] and 80% in test [2].

With `COc1cc(C)c(S(=O)(=O)N(CCOCC(=O)N2CCn3c(CN(C)C)ccc3C2c2ccccc2)Cc2ccccc2)c(C)c1` (stereo not shown) [Example 126, N-benzyl-N-(2-(2-(6-((dimethylamino)methyl)-1-phenyl-3,4-dihydropyrrolo[1,2-a]pyrazin-2(1H)-yl)-2-oxoethoxy)ethyl)-4-methoxy-2,6-dimethylbenzenesulfonamide], the inhibition at 10 µM in test [1] turned out to be 101%; in test [2] it was 102%.

Regarding `COc1cc(C)c(S(=O)(=O)N(CCOCC(=O)N2CCn3c(CN(C)C)ccc3C2c2cccs2)CC(C)C)c(C)c1C` (stereo not shown) [Example 98, N-(2-(2-(6-((dimethylamino)methyl)-1-(thiophen-2-yl)-3,4-dihydropyrrolo[1,2-a]pyrazin-2(1H)-yl)-2-oxoethoxy)ethyl)-N-isobutyl-4-methoxy-2,3,6-trimethyl-benzenesulfonamide], the inhibition at 10 µM was 101% in test [1] and 102% in test [2].

`COc1cc(C)c(S(=O)(=O)N(C)CCOCC(=O)N2CCn3cccc3C2c2ccc(F)c(F)c2)c(C)c1` (stereo not shown) [Example 57, N-(2-(2-(1-(3,4-difluorophenyl)-3,4-dihydropyrrolo[1,2-a]pyrazin-2(1H)-yl)-2-oxoethoxy)ethyl)-4-methoxy-N,2,6-trimethylbenzenesulfonamide]: the inhibition at 10 µM in test [1] was determined as 102%; in test [2] it was 99%.

Regarding `COc1c(C)cc(S(=O)(=O)N(C)CCOCC(=O)N2CCn3c(CN(C)C)ccc3C2Cc2ccccc2)c(C)c1C` (stereo not shown) [Example 109, N-(2-(2-(1-benzyl-6-((dimethylamino)methyl)-3,4-dihydropyrrolo[1,2-a]pyrazin-2(1H)-yl)-2-oxoethoxy)ethyl)-4-methoxy-N,2,3,5-tetramethylbenzene-sulfonamide], the inhibition at 10 µM in test [1] amounted to 102%; in test [2] it was 101%.

For the compound `COc1cc(C)c(S(=O)(=O)N(CCOCC(=O)N2CCn3cccc3C2c2ccc(Cl)nc2)Cc2ccccc2)c(C)c1C` (stereo not shown) [Example 42, N-benzyl-N-(2-(2-(1-(6-chloropyridin-3-yl)-3,4-dihydropyrrolo[1,2-a]pyrazin-2(1H)-yl)-2-oxoethoxy)ethyl)-4-methoxy-2,3,6-trimethylbenzenesulfonamide], the inhibition at 10 µM stood at 33% in test [1] and 91% in test [2].

Take `COc1c(C)cc(S(=O)(=O)N(C)CCOCC(=O)N2CCn3c(CN4CCCCC4)ccc3C2c2ccccc2)c(C)c1C` (stereo not shown) [Example 107, 4-methoxy-N,2,3,5-tetramethyl-N-(2-(2-oxo-2-(1-phenyl-6-(piperidin-1-ylmethyl)-3,4-dihydropyrrolo[1,2-a]pyrazin-2(1H)-yl)ethoxy)ethyl)benzene-sulfonamide]: the inhibition at 10 µM in test [1] stood at 98%; in test [2], 102%.

Turning to `COc1cc(C)c(S(=O)(=O)N(C)CCOCC(=O)N2CCn3cccc3C2CCc2ccccc2)c(C)c1C` (stereo not shown) [Example 148, 4-methoxy-N,2,3,6-tetramethyl-N-(2-(2-oxo-2-(1-phenethyl-3,4-dihydropyrrolo[1,2-a]pyrazin-2(1H)-yl)ethoxy)ethyl)benzenesulfonamide], the inhibition at 10 µM in test [1] came to 100%; in test [2], 98%.

In the case of `COc1c(C)cc(S(=O)(=O)N(C)CCOCC(=O)N2CCn3c(CN(C)C)ccc3C2c2cccs2)c(C)c1C` (stereo not shown) [Example 112, N-(2-(2-(6-((dimethylamino)methyl)-1-(thiophen-2-yl)-3,4-dihydropyrrolo[1,2-a]pyrazin-2(1H)-yl)-2-oxoethoxy)ethyl)-4-methoxy-N,2,3,5-tetramethylbenzene-sulfonamide], the inhibition at 10 µM in test [1] and in test [2] was 101% throughout.

As for `Cc1cc(C)c(S(=O)(=O)N(C)CCOCC(=O)N2CCn3cccc3C2c2cccc(C(F)(F)F)c2)c(C)c1` (stereo not shown) [Example 75, N,2,4,6-tetramethyl-N-(2-(2-oxo-2-(1-(3-(trifluoromethyl)phenyl)-3,4-dihydropyrrolo[1,2-a]pyrazin-2(1H)-yl)ethoxy)ethyl)benzenesulfonamide], the inhibition at 10 µM in test [1] came to 63%; in test [2] it was 48%.

As for `COc1cc(C)c(S(=O)(=O)N(C)CCOCC(=O)N2CCn3cccc3C2c2ccccc2)c(C)c1C` (stereo not shown) [Example 84, 4-methoxy-N,2,3,6-tetramethyl-N-(2-(2-oxo-2-(1-phenyl-3,4-dihydropyrrolo[1,2-a]pyrazin-2(1H)-yl)ethoxy)ethyl)benzenesulfonamide], the inhibition at 10 µM was determined as 101% in test [1] and 99% in test [2].

As for `COc1c(C)cc(S(=O)(=O)N(C)CCOCC(=O)N2CCn3cccc3C2c2cccnc2)c(C)c1C` (stereo not shown) [Example 29, 4-methoxy-N,2,3,5-tetramethyl-N-(2-(2-oxo-2-(1-(pyridin-3-yl)-3,4-dihydropyrrolo[1,2-a]pyrazin-2(1H)-yl)ethoxy)ethyl)benzenesulfonamide], the inhibition at 10 µM is 96% in test [1] and 79% in test [2].

As for `COc1cc(C)c(S(=O)(=O)N(C)CCOCC(=O)N2CCn3cccc3C2c2cccs2)c(C)c1` (stereo not shown) [Example 60, 4-Methoxy-N,2,6-trimethyl-N-(2-(2-oxo-2-(1-(thiophen-2-yl)-3,4-dihydropyrrolo[1,2-a]pyrazin-2(1H)-yl)ethoxy)ethyl)benzenesulfonamide], the results for the inhibition at 10 µM in test [1] and in test [2] were 100% and 98%, respectively.

On to `COc1cc(C)c(S(=O)(=O)N(C)CCOCC(=O)N2CCn3c(CN4CCCC4)ccc3C2c2ccccc2)c(C)c1` (stereo not shown) [Example 15, 4-methoxy-N,2,6-trimethyl-N-(2-(2-oxo-2-(1-phenyl-6-(pyrrolidin-1-ylmethyl)-3,4-dihydropyrrolo[1,2-a]pyrazin-2(1H)-yl)ethoxy)ethyl)benzenesulfonamide], for which the inhibition at 10 µM in test [1] and in test [2] was 101% throughout.
